# Laboratory results reported in US20180289605A1, “NON-AQUEOUS COMPOSITION FOR HAIR FRIZZ REDUCTION” (The Procter & Gamble Company, priority 2017, published 2018).
# What was measured:
# [1] = Additional evaluations: expert rating of hair switches for frizz, clean feel and greasy feel; details: non-aqueous compositions, Tables 9 and 10
# Procedure: […] The switch is kept at high humidity (above 85%) for 2 hours. Then, ten experts are asked to rate each hair switch in terms of frizz, clean feel, and greasy feel, based on a 5 point scale, 5 being the highest and 1 being the lowest rating.
# Additional non-aqueous leave-on treatment compositions are prepared (Tables 9 and 10) according to the procedure described above, which are used to treat hair switches using the procedure described above (amount of 0.10 g of composition per g of hair). The switch is kept at high humidity (above 85%) for 2 hours. Then, ten experts are asked to rate each hair switch in terms of frizz, clean feel and greasy feel, based on a 5 point scale, 5 being the highest and 1 being the lowest rating.
# [2] = Dynamic Vapor Sorption (DVS) % water reduction of treated hair
# Procedure: The % water reduction is calculated as follows:
# % Water reduction=[(B−A)×100]/B
# [3] = Class II materials, hair 0% RH versus 90% RH, versus control hair
# [4] = Class I materials, 1% wt/vol, hair 0% RH versus 90% RH, versus control hair
Molecule,"Results of hair switch rating in words (frizz protection, clean feel, greasy feel) [1]","% Water reduction [2, 3] [%]",further results
O=C(OCCO)c1ccccc1O [2-Hydroxyethyl salicylate],provide frizz protection with clean feel and without greasy feel negative,10,
CCCCC/C=C\C/C=C\CCCCCCCC(=O)OCC [Ethyl linoleate],,8,
CCCCCCCC/C=C\CCCCCCCC(=O)O [Oleic Acid],,14,
CCCCCC[C@@H](O)C/C=C\CCCCCCCC(=O)O [Ricinoleic acid],,8.8,
CCOC(=O)c1cc(O)c(O)c(O)c1 [Ethyl gallate],,17,
O=C(O)c1cc(Cl)ccc1O [5-Chlorosalicylic acid],provide fizz protection with clean feel and without greasy feel negative,,
O=C(O)c1ccccc1O [Salicylic acid],provide fizz protection with clean feel and without greasy feel negative,,"% Water reduction ([2]; Table 6, 1% salicylic acid in ethanol:water (50:50), final pH 3.2 (column pH 3)): 30%; % Water reduction ([2]; Table 6, 1% salicylic acid in ethanol:water (50:50), final pH 4.2): 27%; % Water reduction ([2]; Table 6, 1% salicylic acid in ethanol:water (50:50), final pH 7): 22%; % Water reduction ([2]; Table 6, 1% salicylic acid in ethanol:water (50:50), final pH 10): 15%"
CC(C)CCCCCCCCCCCCCCCOC(=O)CCCCCCCCCCCCCCC(C)C [Isostearyl isostearate],provide frizz protection with clean feel and without greasy feel negative,11,
C/C(=C\CO)CCC[C@H](C)CCC[C@H](C)CCCC(C)C [Phytol],,14,
O=C(O)c1cccc(O)c1 [3-Hydroxybenzoic Acid],,,"% Water reduction [2, 4]: 20%"
CCCCCCCCCCCCCC(=O)OC(C)C [Isopropyl myristate],,12,
CCCCCCCC/C=C\CCCCCCCC(=O)OCC(O)CO (stereo not shown) [Glyceryl monooleate],,5,
CCCCCCCCC(CO)CCCCCC (stereo not shown) [2-Hexyl-1-decanol],provide frizz protection with clean feel and without greasy feel negative,11,
"O=C(O)c1ccc(O)c(O)c1 [3,4-Dihydroxybenzoic acid]",,,"% Water reduction [2, 4]: 20%"
"O=C(O)c1ccc(O)cc1O [2,4-Dihydroxybenzoic acid]",provide fizz protection with clean feel and without greasy feel negative,,"% Water reduction [2, 4]: 30%"
O=S(=O)(O)c1ccc(O)cc1 [4-Hydroxybenzenesulphonic acid],provide fizz protection with clean feel and without greasy feel negative,,
Nc1ccc(O)cc1 [4-Aminophenol],,,"% Water reduction [2, 4]: 10%"
CC(C)C(=O)O [Isobutyric acid],,5,
Sorbitan caprylate,,11,
COc1cc(/C=C/C(=O)O)ccc1O [Trans-Ferulic Acid],,,"% Water reduction [2, 4]: 6%"
